Key:
[1] = test system: ventricular arrhythmias induced by two-stage ligation of the left anterior descending coronary artery (Harris dog); test: Antiarrhythmic activity by coronary ligation in the Harris dog model (i.v. infusion); type: in vivo, dog (adult mongrel); conditions: Harris dog, IV infusion; ED is the effective dose required to sustain normal sinus rhythm
Excerpt: The following examples describe the pharmacological evaluation of the compounds made in accordance with the present invention. In particular, these examples describe the evaluation of antiarrhythmic activity by coronary ligation in the well known Harris dog model. Ventricular arrhythmias were induced in adult mongrel dogs (10-15 kg) of either sex by two-stage ligation of the left anterior descending coronary artery. […] The test compound in saline was infused intravenously at a cumulative rate of […] to 1.2 mg/kg/min (base) unitl normal sinus rhythm or toxicity occurred. Normal sinus rhythm was defined as 90-100% normal complexes over a 5 min period.

Guinea Pig Ileum = test: In vitro evaluation of anticholinergic activity in the isolated guinea pig ileum; design: species or system guinea pig (male Hartley); conditions: 4 mg/L, inhibition of field-stimulated contractile tension; for inhibition at 4 µg/mL: Cavia porcellus, read-out: Anticholinergic Inhibition of Guinea Pig Ileum (% inhibition at 4 mg/L)
Description: The following examples describe the in vitro evaluation of anticholinergic activity in the isolated guinea pig ileum. Fasted, male Hartley guinea pigs (300-400 g) were killed by a blow to the head. […] One end of the ileal strip was impaled onto a platinum wire electrode; and the other end was tied to a stationary glass rod. Basal tension was set at 0.1-0.3 g and peak developed tension in response to field stimulation (100-150 V, 10 msec pulse duration, 0.2 Hz) was measured with a tension transducer.

[2] = test system: ventricular arrhythmias induced by ouabain (Ouabain dog); test: Antiarrhythmic activity in the Ouabain dog model (i.v. infusion); type: in vivo; conditions: Ouabain dog, IV infusion, ED is the effective dose required to sustain normal sinus rhythm; for minimal effective dose: Canis lupus familiaris, read-out: Antiarrhythmic ED in Ouabain Dog
Description: The following examples describe the pharmacological evaluation of the compounds in accordance with the present invention. In particular, these examples describe the evaluation of antiarrhythmic activity in the Oubain dog model. […] The test compound was infused intravenously in saline at a rate of about 0.3 to about 5 mg/kg/min until normal sinus rhythm or toxicity occurred. Normal sinus rhythm was defined as 90-100% normal complexes over a 5 minute period.

“2,6-bis(pyrrolidinylmethyl)-4-benzyl-phenol [XXXVI]” was tested, and the “Antiarrhythmic ED in Harris Dog” value [1] was “low activity” and the “Anticholinergic Inhibition of Guinea Pig Ileum (% inhibition at 4 mg/L)” value (Guinea Pig Ileum) was 14%.

O=C(Nc1ccccc1)c1cc(CN2CCCC2)c(O)c(CN2CCCC2)c1 [Example XXXIII, N-([3,5-bis(pyrrolidinylmethyl)-4-hydroxy]benzoyl)-aniline] showed a minimal effective dose [2] of 3.5 mg/kg.

O=C(Nc1cc(CN2CCOCC2)c(O)c(CN2CCOCC2)c1)c1ccccc1 [Example XXXI, N-(benzoy)3,5-bis(morpholinomethyl)-4-hydroxyaniline] showed a minimal effective dose [2] of 16.5 mg/kg and an inhibition at 4 µg/mL (Guinea Pig Ileum) of 37%.

With Cc1cccc(C(=O)Nc2cc(CN3CCCC3)c(O)c(CN3CCCC3)c2)c1 [XV, N--(3-methylbenzoyl)-3,5,-bis(N--pyrrolidinylmethyl)-4-hydroxyaniline] the minimal effective dose [2] was 5.3 mg/kg and the inhibition at 4 µg/mL (Guinea Pig Ileum) was 32%.

In the case of CC(=O)Nc1cc(CN2CCCC2)c(O)c(CN2CCCC2)c1 [Example XXIX, 3,5-bis(N-pyrrolidinylmethyl)-4-hydroxyacetanilide], the “Antiarrhythmic ED in Harris Dog” value [1] is reported as “inactive”.

COc1ccc(C(=O)Nc2cc(CN3CCCC3)c(O)c(CN3CCCC3)c2)cc1 [VIII, N--(4-methoxybenzoyl)-3,5,-bis(N--pyrrolidinylmethyl)-4-hydroxyaniline] showed a minimal effective dose [2] of 7.2 mg/kg and an inhibition at 4 µg/mL (Guinea Pig Ileum) of 24%.

Nc1ccc(C(=O)Nc2cc(CN3CCCC3)c(O)c(CN3CCCC3)c2)cc1 [XXVIII, N-(4-aminobenzoyl)-3,5-bis(pyrrolidinylmethyl)-4-hydroxyaniline] showed a minimal effective dose [2] of 4.5 mg/kg and an inhibition at 4 µg/mL (Guinea Pig Ileum) of 0%.

With O=C(Nc1cc(CN2CCCC2)c(O)c(CN2CCCC2)c1)c1ccc(Cl)cc1Cl [VI, N--(2,4,dichorobenzoyl)-3,5,-bis(N--pyrrolidinylmethyl)-4-hydroxyaniline] the “Antiarrhythmic ED in Ouabain Dog” value [2] was “low activity” and the inhibition at 4 µg/mL (Guinea Pig Ileum) was 11%.

For O=C(NCc1cc(CN2CCCC2)c(O)c(CN2CCCC2)c1)c1ccccc1C(F)(F)F [XXIV, N--(2-trifluoromethylbenzoyl)-3,5-bis(pyrrolidinylmethyl)-4-hydroxybenzylamine], the minimal effective dose [2] was 1.7 mg/kg and the inhibition at 4 µg/mL (Guinea Pig Ileum) was 8.5%.

Work on O=C(NCc1cc(CN2CCCC2)c(O)c(CN2CCCC2)c1)c1ccc(Cl)cc1 [XXIII, N--(4-chlorobenzoyl)-3,5-bis(pyrrolidinylmethyl)-4-hydroxybenzylamine] yielded a minimal effective dose [2] of 3.8 mg/kg and an inhibition at 4 µg/mL (Guinea Pig Ileum) of 56%.

Cc1ccccc1C(=O)Nc1cc(CN2CCCC2)c(O)c(CN2CCCC2)c1 [XVI, N--(2-methylbenzoyl)-3,5,-bis(N--pyrrolidinylmethyl)-4-hydroxyaniline] was tested, and the minimal effective dose [2] was 2 mg/kg and the inhibition at 4 µg/mL (Guinea Pig Ileum) was 9.4%.

Nc1cc(CN2CCCC2)c(O)c(CN2CCCC2)c1 [Example XXX, 3,5-bis(N-pyrrolidinylmethyl)-4-hydroxyaniline] was tested, and the “Antiarrhythmic ED in Harris Dog” value [1] was “inactive” and the inhibition at 4 µg/mL (Guinea Pig Ileum) was 3%.

For COc1cc(C(=O)Nc2cc(CN3CCCC3)c(O)c(CN3CCCC3)c2)cc(OC)c1OC [XVIII], the “Antiarrhythmic ED in Ouabain Dog” value [2] was “inactive” and the inhibition at 4 µg/mL (Guinea Pig Ileum) was 5.9%.

In the case of COc1ccccc1C(=O)Nc1cc(CN2CCCC2)c(O)c(CN2CCCC2)c1 [XIV, N--(2-methoxybenzoyl)-3,5,-bis(N--pyrrolidinylmethyl)-4-hydroxyaniline], the minimal effective dose [2] is reported as 3 mg/kg and the inhibition at 4 µg/mL (Guinea Pig Ileum) is reported as 31%.

Compound O=C(Nc1cc(CN2CCCC2)c(O)c(CN2CCCC2)c1)c1ccccc1C(F)(F)F [XII, N--(2-trifluoromethylbenzoyl)-3,5,-bis(N--pyrrolidinylmethyl)-4-hydroxyaniline] has a minimal effective dose [2] of 6.2 mg/kg and an inhibition at 4 µg/mL (Guinea Pig Ileum) of 0%.

For O=C(Nc1cc(CN2CCCC2)c(O)c(CN2CCCC2)c1)c1ccc([N+](=O)[O-])cc1 [VII, N--(4-nitrobenzoyl)-3,5,-bis(N--pyrrolidinylmethyl)-4-hydroxyaniline], the minimal effective dose [2] was 11 mg/kg and the inhibition at 4 µg/mL (Guinea Pig Ileum) was 24%.

In the case of O=C(Nc1cc(CN2CCCC2)c(O)c(CN2CCCC2)c1)c1ccccc1Cl [Example X, N--(2-chlorobenzoyl)-3,5,-bis(N--pyrrolidinylmethyl)-4-hydroxyaniline], the minimal effective dose [2] is reported as 5.8 mg/kg and the inhibition at 4 µg/mL (Guinea Pig Ileum) is reported as 0%.

In the case of O=C(Nc1cc(CN2CCCC2)c(O)c(CN2CCCC2)c1)c1cccc(Cl)c1 [XI, N--(3-chlorobenzoyl)-3,5,-bis(N--pyrrolidinylmethyl)-4-hydroxyaniline], the minimal effective dose [2] is reported as 3.75 mg/kg and the inhibition at 4 µg/mL (Guinea Pig Ileum) is reported as 37%.

O=C(Nc1cc(CN2CCCC2)c(O)c(CN2CCCC2)c1)c1cccs1 [Example XX, N--(2-thiophenecarbonyl)-3,5-bis(N--pyrrolidinylmethyl)-4-hydroxyaniline] showed a minimal effective dose [2] of 1.9 mg/kg and an inhibition at 4 µg/mL (Guinea Pig Ileum) of 4%.

O=C(Nc1cc(CN2CCCC2)c(O)c(CN2CCCC2)c1)c1cccc(C(F)(F)F)c1 [IX, N--(3-trifluoromethylbenzoyl)-3,5,-bis(N--pyrrolidinylmethyl)-4-hydroxyaniline] showed a minimal effective dose [2] of 2.25 mg/kg and an inhibition at 4 µg/mL (Guinea Pig Ileum) of 62%.

In the case of Cc1cccc(C)c1C(=O)Nc1cc(CN2CCCC2)c(O)c(CN2CCCC2)c1 [IXX, N--(2,6,dimethylbenzoyl)-3,5,-bis(N--pyrrolidinylmethyl)-4-hydroxyaniline], the minimal effective dose [2] is reported as 4.3 mg/kg and the inhibition at 4 µg/mL (Guinea Pig Ileum) is reported as 15%.

In the case of O=C(NCc1cc(CN2CCCC2)c(O)c(CN2CCCC2)c1)c1ccccc1 [Example XXII, N-(benzoyl)-3,5-bis(pyrrolidinylmethyl)-4-hydroxybenzylamine], the minimal effective dose [2] is reported as 3 mg/kg and the inhibition at 4 µg/mL (Guinea Pig Ileum) is reported as 32%.

With O=C(NCc1cc(CN2CCCC2)c(O)c(CN2CCCC2)c1)c1ccccc1Cl [XXVI, N--(2-chlorobenzoyl)-3,5-bis(pyrrolidinylmethyl)-4-hydroxybenzylamine] the minimal effective dose [2] was 2.3 mg/kg and the inhibition at 4 µg/mL (Guinea Pig Ileum) was 18%.

Compound O=C(NCc1cc(CN2CCCC2)c(O)c(CN2CCCC2)c1)c1cccc(Cl)c1 [XXVII, N--(3-chlorobenzoyl)-3,5-bis(pyrrolidinylmethyl)-4-hydroxybenzylamine] has a minimal effective dose [2] of 9.8 mg/kg and an inhibition at 4 µg/mL (Guinea Pig Ileum) of 78%.

In the case of O=C(NCc1cc(CN2CCCC2)c(O)c(CN2CCCC2)c1)c1ccc(C(F)(F)F)cc1 [XXXV, N-(4-trifluoromethyl)-3,5-bis(pyrrolidinylmethyl)-4-hydroxybenzylamine], the minimal effective dose [2] is reported as 4.5 mg/kg and the inhibition at 4 µg/mL (Guinea Pig Ileum) is reported as 49%.

Compound CN(C(=O)c1ccccc1)c1cc(CN2CCCC2)c(O)c(CN2CCCC2)c1 [XXXIV] has a minimal effective dose [2] of 16 mg/kg and an inhibition at 4 µg/mL (Guinea Pig Ileum) of 16%.

For O=C(NCc1cc(CN2CCCC2)c(O)c(CN2CCCC2)c1)c1cccc(C(F)(F)F)c1 [XXV, N--(3-trifluoromethylbenzoyl)-3,5-bis(pyrrolidinylmethyl)-4-hydroxybenzylamine], the minimal effective dose [2] was 5.5 mg/kg and the inhibition at 4 µg/mL (Guinea Pig Ileum) was 72%.

O=C(Cc1cccs1)Nc1cc(CN2CCCC2)c(O)c(CN2CCCC2)c1 [Example XXI] was tested, and the “Antiarrhythmic ED in Ouabain Dog” value [2] was “low activity” and the inhibition at 4 µg/mL (Guinea Pig Ileum) was 13%.

Compound O=C(Nc1cc(CN2CCCCC2)c(O)c(CN2CCCCC2)c1)c1ccccc1 [Example XXXII, N-(benzoyl)3,5-bis(piperidinylmethyl)-4-hydroxyaniline] has a minimal effective dose [2] of 11 mg/kg and an inhibition at 4 µg/mL (Guinea Pig Ileum) of 33%.

In the case of O=C(Nc1cc(CN2CCCC2)c(O)c(CN2CCCC2)c1)c1c(Cl)cccc1Cl [XVII, N--(2,6,dichlorobenzoyl)-3,5,-bis(N--pyrrolidinylmethyl)-4-hydroxyaniline], the minimal effective dose [2] is reported as 2 mg/kg and the inhibition at 4 µg/mL (Guinea Pig Ileum) is reported as 14.3%.

From patent US4755527A, “Aryl substituted aminomethyl benzene derivatives” (priority 1985, dated 1988)
